Assays:
11b-HSD2 [1] = molecular target: T1, 11b-HSD2 (Homo sapiens, UniProt P80365); assay: Cellular assay, 11b-HSD2 activity in HepG2 cells; assay type: cell-based; design: endogenous in cells; host or cells: HepG2 (ATCC HB-8065); conditions: 4 hour pre-incubation, pIC50 scored 1-3, read-out: [C2] HSD2 cellular HepG2 Score
T1 sequence (P80365 1-405): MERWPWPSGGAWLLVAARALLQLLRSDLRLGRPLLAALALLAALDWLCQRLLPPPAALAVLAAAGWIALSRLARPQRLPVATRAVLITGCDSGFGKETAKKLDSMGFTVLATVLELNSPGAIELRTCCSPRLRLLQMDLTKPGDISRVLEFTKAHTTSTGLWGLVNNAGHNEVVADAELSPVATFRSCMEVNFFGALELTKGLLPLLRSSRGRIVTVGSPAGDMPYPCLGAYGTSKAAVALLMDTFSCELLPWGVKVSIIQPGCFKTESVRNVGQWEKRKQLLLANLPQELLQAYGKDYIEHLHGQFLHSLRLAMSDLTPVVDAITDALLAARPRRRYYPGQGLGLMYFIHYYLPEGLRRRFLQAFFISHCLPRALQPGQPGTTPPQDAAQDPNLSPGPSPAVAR
Protocol: The effects on 11b-HSD2 activity was studied in HepG2 and LCC-PK1-cells HepG2-cells (ATCC HB-8065) were seeded in 12 well plates at a density of 100,000 cells/ml and grown at 37 C in a humidified 5% CO2 atmosphere in MEM-Rega-3 medium supplemented with 10% heat inactivated foetal calf serum, 2 mM L-glutamine and sodium bicarbonate). Medium was refreshed twice a week. Pig kidney cells (LCC-PK1, ATCC CRL-1392) were seeded at a density of 150,000 cells/ml in 12 well plates and grown at 37 C in a humidified 5% CO2 atmosphere in Medium 199 supplemented with Earls modified salt solution, 100 U/ml penicillin, 100 μg/ml streptomycin and 10% foetal calf serum. Medium was refreshed twice a week. Twenty four hours prior to the onset of the experiment, medium was changed by medium containing 10% charcoal stripped foetal calf serum.
Following a 4 hour pre-incubation with test compound, 0.5 μCi ^3H-cortisol or corticosterone, was added to the cultures. One hour later, the medium was extracted on Extrelut^3-columns with 15 ml diethyl ether and the extract was analysed by HPLC as described above.
(§1) As for the enzymatic assays, the compounds to be tested were taken from a stock solution and tested at a final concentration ranging from […] to 3.10^−9M. From the thus obtained dose response curves, the pIC50 value was calculated and scored as follows; Score 1=pIC50 value<5, Score 2=pIC50 value in the range of 5 to 6, Score 3=pIC50 value>6. (in this table NT stands for Not Tested).

11b-HSD2 [2] = molecular target: T1, 11b-HSD2; assay: Enzymatic assay, 11b-HSD2 dependent dehydrogenase activity; assay type: biochemical; conditions: 11b-HSD2 dehydrogenase activity, pIC50 scored 1-3, read-out: [C1] HSD2 prot Dehydro Score
Protocol: The effects on the 11b-HSD2 dependent dehydrogenase activity was studied in a reaction mixture containing 0.1M sodium phosphate buffer pH 7.5, 300 μM NAD, 100 nM cortisol (of which 2 nM is 3H-radio labelled), 1 μl drug and/or solvent and 2.5 μg recombinant protein in a final volume of 100 μl.
(§2) All incubations were performed for 45 min at 37 C in a water bath. The reaction was stopped by adding 100 μl acetonitrile containing 20 μg corticosterone as internal standard. After centrifugation, the product formation was analysed in the supernatant by HPLC on a Hypersyl BDS-C18 column using 0.05 mM ammonium acetate/methanol (50/50) as solvent. In all of the aforementioned assays, the drugs to be tested were taken from a stock solution and tested at a final concentration ranging from […] to 3.10^−9M. From the thus obtained dose response curves, the pIC50 value was calculated and scored as follows; Score 1=pIC50 value<5, Score 2=pIC50 value in the range of 5 to 6, Score 3=pIC50 value>6. (in this table NT stands for Not Tested).

11b-HSD1 [3] = molecular target: T2, 11b-HSD1 (Mus musculus, UniProt P50172); assay: Cellular assay, 11b-HSD1 activity in differentiated 3T3-L1 cells; assay type: cell-based; conditions: 4 hour pre-incubation, pIC50 scored 1-3, read-out: [C2] HSD1 cellular 3T3-L1 Score
T2 construct: endogenous in cells; host or cells: 3T3-L1 (ATCC-CL-173), differentiated into adipocytes
Protocol: The effects on 11b-HSD1 activity was measured in differentiated 3T3-L1 cells and rat hepatocytes.
Mouse fibroblast 3T3-L1 cells (ATCC-CL-173) were seeded at a density of 16500 cells/ml in 12 well plates and grown for 7 days in DMEM medium (supplemented with 10% heat inactivated foetal calf serum, 2 mM glutamine and 25 mg gentamycin) at 37 C in a humidified 5% CO2 atmosphere. Medium was refreshed twice a week. Fibroblasts were differentiated into adipocytes at 37 C in a 5% CO2 humidified atmosphere in growth medium containing 2 μg/ml insulin, 55 μg/ml IBMX and 39.2 μg/ml dexamethasone.
Following a 4 hour pre-incubation with test compound, 0.5 μCi ^3H-cortisone or dehydrocorticosterone, was added to the cultures. One hour later, the medium was extracted on Extrelut^3-columns with 15 ml diethyl ether and the extract was analysed by HPLC as described above.
as §1

11b-HSD1 [4] = molecular target: 11b-HSD1 (Homo sapiens, UniProt P28845); assay: Enzymatic assay, 11b-HSD1 reductase activity (conversion of cortisone into cortisol); assay type: biochemical; conditions: pIC50 scored 1-3, read-out: [C1] HSD1-prot Reduct Score
Protocol: The effects of compounds on 11b-HSD1 dependent conversion of cortisone into cortisol (reductase activity) was studied in a reaction mixture containing 30 mM Tris-HCl buffer pH 7.2, 180 μM NADPH, 1 mM EDTA, 2 μM cortisone, 1 μl drug and/or solvent and 11 μg recombinant protein in a final volume of 100 μl.
as §2

11b-HSD1 (Homo sapiens, UniProt P28845), sequence (P28845 whole entry): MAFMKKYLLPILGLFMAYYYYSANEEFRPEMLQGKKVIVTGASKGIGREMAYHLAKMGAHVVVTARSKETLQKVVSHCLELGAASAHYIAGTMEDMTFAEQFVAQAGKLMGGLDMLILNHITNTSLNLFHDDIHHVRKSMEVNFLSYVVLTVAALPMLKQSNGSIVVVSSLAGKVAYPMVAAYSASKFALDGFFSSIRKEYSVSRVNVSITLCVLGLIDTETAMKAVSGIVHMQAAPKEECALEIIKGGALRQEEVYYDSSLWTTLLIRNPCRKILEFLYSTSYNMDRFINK
T2 sequence (P50172 whole entry): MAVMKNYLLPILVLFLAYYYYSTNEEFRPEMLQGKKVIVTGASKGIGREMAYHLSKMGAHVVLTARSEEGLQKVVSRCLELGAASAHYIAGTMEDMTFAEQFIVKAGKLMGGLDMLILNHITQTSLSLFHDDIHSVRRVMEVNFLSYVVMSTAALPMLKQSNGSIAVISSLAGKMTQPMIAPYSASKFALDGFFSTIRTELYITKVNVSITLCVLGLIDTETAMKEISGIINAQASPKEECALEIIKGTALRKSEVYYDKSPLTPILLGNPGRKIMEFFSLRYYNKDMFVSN

Row | SMILES | IC50 (11b-HSD2 [1]) [µM] | IC50 (11b-HSD2 [2]) [µM] | IC50 (11b-HSD1 [3]) [nM] | IC50 (11b-HSD1 [4]) [nM]
1 | CNc1cccc(C(C)(C)C(=O)NC2C3CC4CC(C3)CC2C4)c1 (stereo not shown) [Compound 77] | > 10 | 1 to 10 | < 1000 | > 10000
2 | CN(C)c1cccc(C(C)(C)C(=O)NC2C3CC4CC(C3)CC2C4)c1 (stereo not shown) [Compound 78] | > 10 | 1 to 10 | < 1000 | < 1000
3 | CC(C)(C(=O)NC1C2CC3CC(C2)CC1C3)c1cccc(F)c1 (stereo not shown) [Compound 84] | > 10 | > 10 | < 1000 | > 10000
4 | CC(C)(C(=O)NC1C2CC3CC(C2)CC1C3)c1cccc(C(F)(F)F)c1 (stereo not shown) [Compound 85] | > 10 | > 10 | < 1000 | > 10000
5 | COc1ccc(C(C)(C)C(=O)NC2C3CC4CC(C3)CC2C4)cc1OC (stereo not shown) [Compound 86] | > 10 | > 10 | < 1000 | > 10000
6 | CC(C)(C(=O)NC1C2CC3CC(C2)CC1C3)c1ccc(F)cc1F (stereo not shown) [Compound 87] | > 10 | > 10 | < 1000 | > 10000
7 | CC(C)(C(=O)NC1C2CC3CC(C2)CC1C3)c1cc(F)ccc1F (stereo not shown) [Compound 88] | > 10 | > 10 | < 1000 | > 10000
8 | Cc1cccc(C(C)(C)C(=O)NC2C3CC4CC(C3)CC2C4)c1 (stereo not shown) [Compound 89] | > 10 | > 10 | < 1000 | < 1000
9 | CC(C)(C(=O)NC1C2CC3CC(C2)CC1(O)C3)c1ccccc1 (stereo not shown) [Compound 91] | > 10 | > 10 | < 1000 | > 10000
10 | CN(C)CCCOc1cccc(C(C)(C)C(=O)NC2C3CC4CC(C3)CC2C4)c1 (stereo not shown) [Compound 92] | > 10 | > 10 | < 1000 | < 1000
11 | O=C(NC1C2CC3CC(C2)CC1C3)C1(c2cccnc2)CCCC1 (stereo not shown) [Compound 126] | > 10 | > 10 | < 1000 | < 1000
12 | O=C(NC1C2CC3CC(C2)CC1C3)C1(c2ccncc2)CCCC1 (stereo not shown) [Compound 127] | > 10 | > 10 | < 1000 | > 10000
13 | CC(C)(C(=O)NC1C2CC3CC(C2)CC1C3)c1cccnc1 (stereo not shown) [Compound 128] | > 10 | > 10 | < 1000 | < 1000
14 | CC(C)(C(=O)NC1C2CC3CC(C2)CC1C3)c1ccsc1 (stereo not shown) [Compound 133] | > 10 | > 10 | < 1000 | > 10000
15 | CC(C)(C(=O)NC1C2CC3CC(C2)CC1C3)c1cccc2ccccc12 (stereo not shown) [Compound 137] | > 10 | > 10 | < 1000 | < 1000
16 | CC(C)(C(=O)NC1C2CC3CC(C2)CC1C3)c1ccc2ccccc2c1 (stereo not shown) [Compound 138] | > 10 | > 10 | < 1000 | > 10000
17 | CC1=C(C(=O)NC2C3CC4CC(C3)CC2C4)Cc2ccccc21 (stereo not shown) [Compound 141] | > 10 | > 10 | < 1000 | < 1000

Row | SMILES | IC50 (11b-HSD2 [1]) [µM] | IC50 (11b-HSD2 [2]) [µM] | IC50 (11b-HSD1 [3]) [nM] | IC50 (11b-HSD1 [4]) [nM]
18 | CC(=Cc1ccccc1)C(=O)NC1C2CC3CC(C2)CC1C3 (stereo not shown) [Compound 151] | > 10 | > 10 | < 1000 | 1000 to 10000
19 | CC(=CC(=O)NC1C2CC3CC(C2)CC1C3)c1ccccc1 (stereo not shown) [Compound 153] | > 10 | > 10 | < 1000 | 1000 to 10000
20 | CC(C)(C(=O)N[C@H]1[C@@H]2CC3C[C@H]1C[C@](O)(C3)C2)c1cccc(OCCN2CCOCC2)c1 [Compound 158] | > 10 | > 10 | < 1000 | > 10000
21 | O=C(NC1C2CC3CC(C2)CC1C3)C1=CCOc2ccccc21 (stereo not shown) [Compound 162] | > 10 | > 10 | < 1000 | < 1000
22 | CCCc1cccc(C(C)(C)C(=O)NC2C3CC4CC(C3)CC2C4)c1 (stereo not shown) [Compound 166] | > 10 | > 10 | < 1000 | < 1000
23 | O=C(NC1C2CC3CC(C2)CC1C3)C1CCOc2ccccc21 (stereo not shown) [Compound 167] | > 10 | > 10 | < 1000 | < 1000
24 | O=C(NC1C2CC3CC(C2)CC1C3)C1=CCCCc2ccccc21 (stereo not shown) [Compound 168] | > 10 | > 10 | < 1000 | < 1000
25 | O=C(NC1C2CC3CC(C2)CC1C3)C1CCCCc2ccccc21 (stereo not shown) [Compound 169] | > 10 | > 10 | < 1000 | < 1000
26 | COc1cccc2c1OCC=C2C(=O)NC1C2CC3CC(C2)CC1C3 (stereo not shown) [Compound 171] | > 10 | > 10 | < 1000 | < 1000
27 | O=C(NC1C2CC3CC(C2)CC1C3)C1Cc2ccccc21 (stereo not shown) [Compound 177] | > 10 | > 10 | < 1000 | < 1000
28 | Cc1cc(C)c2c(c1)C(C(=O)NC1C3CC4CC(C3)CC1C4)=CCC2 (stereo not shown) [Compound 181] | > 10 | > 10 | < 1000 | > 10000
29 | O=C(NC1C2CC3CC(C2)CC1C3)C1CCSc2ccccc21 (stereo not shown) [Compound 182] | > 10 | > 10 | < 1000 | < 1000
30 | CC(C)(C(=O)NC1C2CC3CC(C2)CC1C3)c1cccc(CCN2CCOCC2)c1 (stereo not shown) [Compound 191] | > 10 | > 10 | < 1000 | < 1000
31 | CCOC(=O)CCc1cccc(C(C)(C)C(=O)NC2C3CC4CC(C3)CC2C4)c1 (stereo not shown) [Compound 193] | > 10 | > 10 | < 1000 | < 1000
32 | CC(C)(C(=O)NC1C2CC3CC(C2)CC1C3)c1cccc(CCC(=O)O)c1 (stereo not shown) [Compound 196] | > 10 | > 10 | < 1000 | < 1000
33 | O=C(NC1C2CC3CC(C2)CC1C3)C1CCc2ccccc21 (stereo not shown) [Compound 197] | > 10 | > 10 | < 1000 | > 10000
34 | CC(C)(C(=O)NC1C2CC3CC(C2)CC1C3)c1cccc(/C=C/C(=O)OCc2ccccc2)c1 (stereo not shown) [Compound 198] | > 10 | > 10 | < 1000 | > 10000

Reference: patent US7968601B2, “Adamantyl acetamides as 11-β hydroxysteroid dehydrogenase inhibitors” (Janssen Pharmaceutica N.V., priority 2002, dated 2011)
